Experimental data: patent US12083109B2, “Neurokinin antagonists and uses thereof” (California Institute of Technology, priority 2017, dated 2024)

Biological target: T1, Nk3R (Mus musculus, UniProt P47937)
T1 sequence (P47937 1-452): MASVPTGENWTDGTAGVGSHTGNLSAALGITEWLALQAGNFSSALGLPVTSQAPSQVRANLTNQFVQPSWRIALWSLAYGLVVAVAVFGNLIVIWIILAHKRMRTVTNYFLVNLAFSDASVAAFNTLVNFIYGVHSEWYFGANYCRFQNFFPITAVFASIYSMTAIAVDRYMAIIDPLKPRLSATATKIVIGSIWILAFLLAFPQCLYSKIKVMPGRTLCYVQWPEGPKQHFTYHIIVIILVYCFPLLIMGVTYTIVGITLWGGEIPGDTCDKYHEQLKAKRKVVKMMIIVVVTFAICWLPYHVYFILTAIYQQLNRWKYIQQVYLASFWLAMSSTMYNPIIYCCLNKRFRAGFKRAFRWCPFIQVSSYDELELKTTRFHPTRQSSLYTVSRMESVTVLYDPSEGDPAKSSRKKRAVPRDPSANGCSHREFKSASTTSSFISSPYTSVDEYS
Assay: Resident intruder assay (aggression), osanetant
Assay type: in vivo
Set-up: from tissue; host or cells: Living mice (wild-type C57Bl6/N males, Charles River)
Protocol: Testing for aggression using the resident intruder assay (Blanchard et al., 2003; incorporated by reference in its entirety) was performed as previously described (Hong et al., 2015; Hong et al., 2014; Lee et al., 2014; incorporated by reference in their entirety). Briefly, experimental mice (“residents”) were transported in their homecage to a novel behavior testing room (cagemates in group housed mice were removed from the homecage prior to transport for this and all other behavioral tests), where they acclimated for 5-15 minutes. Homecages were then slotted into a customized behavioral chamber lit with a surround panel of infrared lights and equipped with two synchronized infrared video cameras (Pointgrey) placed at 90-degree angles from each other to allow for simultaneous behavior recording with a front and top view. Synchronized video was acquired using Hunter 4.0 software (custom, Pietro Perona lab, Caltech). Following a two-minute baseline period, an unfamiliar male BALB/c mouse (“intruder”) was placed in the homecage of the resident for 10 minutes and mice were allowed to freely interact. Group housed BALB/c males were used as intruders because they are a relatively submissive strain, thereby reducing any intruder-initiated fighting. Behavior videos were hand-annotated by an observer blind to experimental conditions (Behavior Annotator, Piotr's MATLAB toolbox; http://vision.ucsd.edu/˜pdollar/toolbox/doc/). Fighting bouts were scored on a frame-by-frame basis and were defined as a frame during which the resident male was engaged in an episode of biting or intense aggressive behavior immediately surrounding a biting episode. Annotation files were then batch analyzed for behavior, including number of fighting bouts, using in-house customized programs in MATLAB (A. Kennedy, Caltech).
Mice were administered the Nk3R antagonist osanetant (Axon Medchem, Axon 1533) either systemically or intra-brain region. Osanctant was dissolved in saline with 0.1% Tween 20 (vehicle). For systemic administration mice received an intraperitoneal (i.p.) injection (5 mg/kg) 20 minutes prior to behavioral testing. For microinfusions, guide cannulas were removed from mice and replaced with injector cannulas (Plastics One), which protruded 0.5 mm from the tip of the guide cannula. Injectors were attached to 5 μl Hamilton syringes with PE tubing (Plastics One) and mounted on a microinfusion pump (Harvard Apparatus) for controlled infusion of osanetant (0.3 μl vehicle with 375 ng dose per site injected over 6 minutes). For experiments using systemic administration of clozapine-N-oxide (CNO), CNO (Enzo Life Sciences-Biomol, BML-NS105-0005) was dissolved in saline (9 g/L NaCl) and injected (i.p.) at 5 mg/kg for hM4DREADD silencing or 2 mg/kg for hM3DREADD activation 20 minutes prior to behavioral testing. CNO was also administered chronically in drinking water (0.5 mg CNO/100 ml water).

With `CC(=O)N(C)C1(c2ccccc2)CCN(CCC[C@]2(c3ccc(Cl)c(Cl)c3)CCCN(C(=O)c3ccccc3)C2)CC1` [osanetant, N-(1-{3-[(3R)-1-benzoyl-3-(3,4-dichlorophenyl)piperidin-3-yl]propyl}-4-phenylpiperidin-4-yl)-N-methylacetamide] the “aggression promoted by sexual experience” value (2 weeks co-habitation with a female, no isolation, systemic osanetant) was “had no effect”, the SIS-enhanced aggression (SIS mice (2 weeks isolation), osanetant 5 mg/kg i.p. 20 min before test) was “blocked” and the SIS-enhanced aggression (SIS mice (2 weeks isolation), osanetant 5 mg/kg i.p. 20 min before test, listed as Osanetant) was “strongly reduced”. For the same molecule, the SIS-enhanced aggression (osanetant daily during two-week isolation, tested off-drug) was “prevented”, the aggression (osanetant injection into CeA) was “unaffected” and the SIS-induced aggression (osanetant microinfusion into DMH) was “abolished”. For the same molecule, the SIS-induced aggression (osanetant microinfusion into DMH, listed as Osanetant) was “selectively blocked” and the SIS-induced aggression (osanetant microinfusion into dBNSTa) was “no effect”.
